Test: aqueous solubility at different pH
Source text: Moreover, alkaline agents, such as sodium bicarbonate, calcium carbonate, meglumine, and calcium phosphate, can be used to convert salt forms of amine drugs to free base. Generally, free bases have much lower solubility than their salts.

COc1ccc2c3c1O[C@H]1C(=O)CC[C@@]4(O)[C@@H](C2)N(C)CC[C@]314.Cl [oxycodone hydrochloride]
solubility (pH 1.5, simulated gastric fluid): 182 mg/mL
solubility (pH 7.4, aqueous buffer): 6.1 mg/mL

Reference: US9308176B2, “Less abusable pharmaceutical preparations” (Supernus Pharmaceuticals, Inc, priority 2004, dated 2016)
